Test results taken from patent US9403855B2 (priority 2010, dated 2016).

What was measured:
[1] = target: T1, H274Y neuraminidase mutant from A/WSN/1933 (H1N1) (Influenza A virus, UniProt P03470, H259Y); experiment: biochemical; set-up: species or system Influenza virus A/WSN/1933 (H1N1) H274Y mutant
[2] = target: T1, H274Y neuraminidase mutant from A/WSN/1933 (H1N1); experiment: cell-based; set-up: species or system Influenza virus A/WSN/1933 (H1N1) H274Y mutant

| SMILES | IC50 [1] | EC50 [2] |
| --- | --- | --- |
| CC(=O)N[C@H]1[C@H]([C@H](O)[C@H](O)CO)OC(P(=O)(O)O)=C[C@@H]1NC(=N)N [1b, (5-Acetamido-4-guanidino-6-(1,2,3-hydroxy)propyl-4,5,6-trihydropyran-2-yl) phosphonic acid] | 0.25 nM | 26 nM |
| CC(=O)N[C@H]1[C@H]([C@H](O)[C@H](O)CO)OC(P(=O)(O)O)=C[C@@H]1N [1a, (5-Acetamido-4-amino-6-(1,2,3-hydroxy)propyl-4,5,6-trihydropyran-2-yl) phosphonic acid] | 0.5 nM | 27 nM |
